Measurements reported in patent publication US12383556B2, “Methods of treating Sjögren's syndrome using a Bruton's tyrosine kinase inhibitor” (NOVARTIS AG, priority 2019, dated 2025).
Where two headings read alike, the source gives them in different places.

Experiment: First-in-human Part 2 multiple ascending dose q.d. blood and urine PK
Assay type: in vivo
Details: for Amount recovered / Amount recovered (%): Day 12, urine; for drug accumulation ratio (Racc): day 12 vs day 1, q.d.; for CL renal: blood and urine, Day 12, read-out: Renal clearance
Description: First-in-human study in up to approximately 168 healthy volunteers (HVs), of which 64 (in Parts 2 & 4) had asymptomatic atopic diathesis. • Part 1 was a double-blind (subject and investigator blind, sponsor unblinded), placebo-controlled single ascending dose (SAD) escalation study of 10 cohorts (N=80) • Part 2 was a double-blind (subject and investigator blind, sponsor unblinded), placebo-controlled multiple ascending dose (MAD) (13 doses over 12 days) escalation study employing once daily dosing in 6 cohorts in healthy volunteers with asymptomatic atopic diathesis (N=48) • Part 3 was a single dose open-label crossover food effect study in 12 HVs • Part 4 was a double-blind (subject and investigator blind, sponsor unblinded), placebo-controlled multiple dose (25 doses over 12 days) study employing twice daily dosing in 2 cohorts of healthy volunteers with asymptomatic atopic diathesis (N=16)
In Parts 2 and 4, subjects were admitted on Day −2 or −1 for baseline safety assessments and to confirm eligibility. Eligible subjects received the first dose of compound (I) under fasting conditions on Day 1, and continued to take study medication under fasting conditions up to and including Day 12. Subjects were domiciled from Day −2 or −1 until the morning of Day 16, which equals 96 hours after the last dose of compound (I) was received. In Parts 2 and 4, the study medication was given once daily and twice daily respectively (details are found in the schedule of assessments).
Subjects were assigned to one of the following 6 cohorts. In each cohort, 8 subjects were randomized to either compound (I) or matching placebo in a 6:2 ratio. • Cohort 1: multiple oral doses of 10 mg compound (I) or matching placebo • Cohort 2: multiple oral doses of 25 mg compound (I) or matching placebo • Cohort 3: multiple oral doses of 50 mg compound (I) or matching placebo • Cohort 4: multiple oral doses of 100 mg compound (I) or matching placebo • Cohort 5: multiple oral doses of 400 mg compound (I) or matching placebo • Cohort 6: multiple oral doses of up to 600 mg compound (I) or matching placebo
Pharmacokinetic samples were obtained in blood and evaluated in all subjects at all dose levels. The samples from placebo subjects were not analyzed. The samples for PK assessments from subjects were collected at time points defined in the study. Compound (I) concentrations were determined in blood by a validated LC-MS/MS method.

[1] = 10 mg qd, Day 12, blood, Mean ± SD
[2] = 25 mg qd, Day 12, blood, Mean ± SD
[3] = 50 mg qd, Day 12, blood, Mean ± SD
[4] = 50 mg qd, Day 12, blood, Median (Min-Max)
[5] = 100 mg qd, Day 1, blood, Mean ± SD
[6] = 100 mg qd, Day 1, blood, Median (Min-Max)
[7] = 100 mg qd, Day 12, blood, Mean ± SD
[8] = 400 mg qd, Day 1, blood, Mean ± SD
[9] = 400 mg qd, Day 12, blood, Mean ± SD
[10] = 600 mg qd, Day 1, blood, Mean ± SD
[11] = 600 mg qd, Day 12, blood, Mean ± SD

## C=CC(=O)N(C)CCOc1c(N)ncnc1-c1cc(F)cc(NC(=O)c2ccc(C3CC3)cc2F)c1C [Compound of Formula (I), N-(3-(6-Amino-5-(2-(N-methylacrylamido)ethoxy)pyrimidin-4-yl)-5-fluoro-2-methylphenyl)-4-cyclopropyl-2-fluorobenzamide]
10 mg qd, Day 1, blood, Mean ± SD
  Cmax: 8.40 ± 2.02 ng/mL
[1]
  CLss/F: 425 ± 64.8 L/h
  Cmax: 18.2 ± 5.90 ng/mL
10 mg qd, Day 12, blood, Median (Min-Max)
  CLss/F: 423 (341-529) L/h
10 mg qd, Mean ± SD
  Amount recovered: 0.0663 ± 0.0309 mg
  Amount recovered (%): 0.663 ± 0.309%
10 mg qd, Median (Min-Max)
  Amount recovered: 0.0630 mg
25 mg qd, Day 1, blood, Mean ± SD
  Cmax: 40.9 ± 21.6 ng/mL
[2]
  CLss/F: 307 ± 253 L/h
  Cmax: 85.9 ± 31.5 ng/mL
25 mg qd, Day 12, blood, Median (Min-Max)
  CLss/F: 248 (129-809) L/h
25 mg qd, Mean ± SD
  Amount recovered: 0.114 ± 0.0706 mg
  Amount recovered (%): 0.456 ± 0.283%
50 mg qd, Day 1, blood, Mean ± SD
  Cmax: 76.5 ± 22.0 ng/mL
[3]
  CLss/F: 268 ± 92.8 L/h
  Cmax: 102 ± 22.0 ng/mL
[4]
  CLss/F: 276 (154-395) L/h
  Cmax: 100 (73.3-131) ng/mL
50 mg qd, Mean ± SD
  Amount recovered: 0.233 ± 0.0880 mg
  Amount recovered (%): 0.467 ± 0.176%
[5]
  AUC0-24: 315 ± 91.5 ng·h/mL
  AUClast: 311 ± 89.1 ng·h/mL
  Cmax: 187 ± 85.0 ng/mL
  MRT: 167 ± 76.8 min
[6]
  AUC0-24: 338 (168-419) h*ng/mL
  AUClast: 333 (168-416) h*ng/mL
  Cmax: 189 (75.6-285) ng/mL
[7]
  AUC0-24: 485 ± 179 ng·h/mL
  AUClast: 488 ± 172 ng·h/mL
  CLss/F: 198 ± 88.7 L/h
  Cmax: 233 ± 84.1 ng/mL
100 mg qd, Day 12, blood, Median (Min-Max)
  CLss/F: 166 (129-298) L/h
100 mg qd, Mean ± SD
  Amount recovered: 0.648 ± 0.330 mg
  Amount recovered (%): 0.648 ± 0.330%
[8]
  AUC0-24: 977 ± 378 ng·h/mL
  AUClast: 973 ± 379 ng·h/mL
  Cmax: 518 ± 89.1 ng/mL
  MRT: 181 ± 66.6 min
400 mg qd, Day 1, blood, Median (Min-Max)
  Cmax: 513 (383-622) ng/mL
[9]
  AUC0-24: 1280 ± 577 ng·h/mL
  AUClast: 1300 ± 602 ng·h/mL
  CLss/F: 366 ± 150 L/h
  Cmax: 551 ± 263 ng/mL
400 mg qd, Day 12, blood, Median (Min-Max)
  CLss/F: 351 (177-591) L/h
400 mg qd, Mean ± SD
  Amount recovered: 1.25 ± 0.647 mg
  Amount recovered (%): 0.313 ± 0.162%
[10]
  AUC0-24: 1080 ± 377 ng·h/mL
  AUClast: 1080 ± 377 ng·h/mL
  Cmax: 550 ± 87.6 ng/mL
  MRT: 188 ± 34.8 min
600 mg qd, Day 1, blood, Median (Min-Max)
  Cmax: 545 (461-691) ng/mL
[11]
  AUC0-24: 1230 ± 356 ng·h/mL
  AUClast: 1240 ± 341 ng·h/mL
  CLss/F: 521 ± 131 L/h
  Cmax: 563 ± 229 ng/mL
600 mg qd, Day 12, blood, Median (Min-Max)
  CLss/F: 569 (345-661) L/h
600 mg qd, Mean ± SD
  Amount recovered: 1.54 ± 0.915 mg
  Amount recovered (%): 0.257 ± 0.153%
High dose
  drug accumulation ratio (Racc): 1.2
Low dose
  drug accumulation ratio (Racc): 5
human, oral, 10 mg, 10 mg qd, Mean ± SD
  CL renal: 45.3 ± 18 mL/min
human, oral, 10 mg, 10 mg qd, Median (Min-Max)
  CL renal: 41.6 mL/min
human, oral, 25 mg, 25 mg qd, Mean ± SD
  CL renal: 16.8 ± 6.81 mL/min
human, oral, 25 mg, 25 mg qd, Median (Min-Max)
  CL renal: 18.9 mL/min
human, oral, 50 mg, 50 mg qd, Mean ± SD
  CL renal: 20.4 ± 2.4 mL/min
human, oral, 50 mg, 50 mg qd, Median (Min-Max)
  CL renal: 20.5 mL/min
human, oral, 100 mg, 100 mg qd, Mean ± SD
  CL renal: 21.6 ± 5.41 mL/min
human, oral, 100 mg, 100 mg qd, Median (Min-Max)
  CL renal: 21.1 mL/min
human, oral, 400 mg, 400 mg qd, Mean ± SD
  CL renal: 16.9 ± 7.13 mL/min
human, oral, 400 mg, 400 mg qd, Median (Min-Max)
  CL renal: 14.5 mL/min
human, oral, 600 mg, 600 mg qd, Mean ± SD
  CL renal: 20 ± 8.25 mL/min
human, oral, 600 mg, 600 mg qd, Median (Min-Max)
  CL renal: 18.1 mL/min
human, blood, oral, 10 mg, 10 mg qd, Day 1, blood, Mean ± SD, read-out: AUC0-24
  AUC(0-t): 4.94 ± 1.35 ng·h/mL
human, blood, oral, 10 mg, 10 mg qd, Day 1, blood, Mean ± SD, read-out: AUClast
  AUC(0-t): 4.17 ± 1.38 ng·h/mL
human, blood, oral, 10 mg, 10 mg qd, Day 1, blood, Mean ± SD, read-out: MRT
  MRT: 45.7 ± 9.06 min
human, blood, oral, 10 mg, 10 mg qd, Day 1, blood, Median (Min-Max)
  Tmax: 31 min
human, blood, oral, 10 mg, 10 mg qd, Day 1, blood, Median (Min-Max), read-out: AUC0-24
  AUC(0-t): 4.94 ng·h/mL
